According to PMC10530836, “Synthesis, Molecular Docking, and Biological Evaluation of Novel Anthranilic Acid Hybrid and Its Diamides as Antispasmodics” (International Journal of Molecular Sciences, 2023):

Key:
Assay type in all cases: cell-based
[1] = test system: Bacillus amyloliquefaciens 4BCL-YT; experiment: Antimicrobial activity, agar well diffusion; details: Dose 0.6 mg/disk, dwell = 6 mm
Excerpt: (§1) Twenty tested microorganisms including six Gram-positive bacteria (Bacillus subtilis ATCC 6633, Bacillus amyloliquefaciens 4BCL-YT, Staphylococcus aureus ATCC 25923, Listeria monocytogenes NBIMCC 8632, Enterococcus faecalis ATCC 19433), six Gram-negative bacteria (Salmonella enteritidis ATCC 13076, Klebsiella sp.—clinical isolate, Escherichia coli ATCC 25922, Proteus vulgaris ATCC 6380, Pseudomonas aeruginosa ATCC 9027), two yeasts (Candida albicans NBIMCC 74, Saccharomyces cerevisiae ATCC 9763), and six fungi (Aspergillus niger ATCC 1015, Aspergillus flavus, Penicillium sp., Rhizopus sp., Mucor sp.—plant isolates, Fusarium moniliforme ATCC 38932) from the collection of the Department of Microbiology at the University of Food Technologies—Plovdiv, Bulgaria, were selected for the antimicrobial activity test. The antimicrobial activity of the samples was determined by the agar well diffusion method. The tested bacteria B. subtilis and B. amyloliquefaciens were cultured on LBG agar at 30 °C. The test bacteria S. aureus, L. monocytogenes, E. faecalis, S. enteritidis, Klebsiella sp., E. coli, P. vulgaris, and P. aeruginosa were cultured on LBG agar at 37 °C for 24 h. The yeast C. albicans was cultured on MEA at 37 °C, while S. cerevisiae was cultured on MEA at 30 °C for 24 h. The fungi A. niger, A. flavus, Penicillium sp., Rhizopus sp., Mucor sp., and F. moniliforme were grown on MEA at 30 °C for 7 days or until sporulation. The inocula of the tested bacteria/yeasts was prepared by homogenization of a small amount of biomass in 5 mL of sterile 0.5% NaCl. The inocula of tested fungi were prepared by the addition of 5 mL of sterile 0.5% NaCl into the tubes. After stirring by vortex V-1 plus (Biosan), they were filtered and replaced in other tubes before use. The number of viable cells and fungal spores was determined using a bacterial counting chamber Thoma (Poly-Optik, GmbH, Bad Blankenburg, Germany). Their final concentrations were adjusted to 10^8 cfu/mL for bacterial/yeast cells and 10^5 cfu/mL for fungal spores and then inoculated in preliminarily melted and tempered at 45–48 °C LBG/MEA agar media. Next, the inoculated media were transferred in a quantity of 18 mL in sterile Petri plates (d = 90 mm) (Gosselin™, Hazebrouck, France) and allowed to harden. Then, six wells (d = 6 mm) per plate were cut, and triplicates of 60 μL of each extract were pipetted into the agar wells. The Petri plates were incubated in identical conditions. The antimicrobial activity was determined by measuring the diameter of the inhibition zones around the wells on the 24th and 48th h of incubation. Tested microorganisms with inhibition zones of 18 mm or more were considered sensitive; moderately sensitive were those in which the zones were from 12 to 18 mm; resistant were those in which the inhibition zones were up to 12 mm or completely missing.

[2] = test system: Staphylococcus aureus ATCC 25923; experiment: Antimicrobial activity, agar well diffusion; details: Dose 0.6 mg/disk, dwell = 6 mm
Excerpt: as §1

[3] = test system: K-562, LAMA-84, T-24, CCL-1 cell lines; experiment: MTT cell viability assay, cell line panel; details: leukemic cells LAMA-84 and K-562; read-out: IC50 estimates
Description: Based on the PASS online and the ProToxII in silico calculations, the evaluation of the cytotoxic activity of the compounds was the other object of our investigation. A series of MTT experiments were conducted to evaluate the in vitro effects of the tested compounds on cell growth in both normal (murine fibroblast CCL-1 cells) and malignant human cell lines of leukemic (K-562, LAMA-84) and epithelial (T-24 bladder carcinoma cells) origin.
To evaluate the biocompatibility of the hybrid compounds, their in vitro antiproliferative activity was assessed in a panel of human malignant cell lines of different origin (K-562 and LAMA-84 suspension-growing myeloid leukemia cells, positive for the Philadelphia chromosome, and the urothelial bladder carcinoma cell line T-24 of adherent type). Non-malignant murine fibroblast cells (CCL-1) were also used as a screening platform. […]
The effects of the newly synthesized anthranilic derivatives on cell viability were measured using a validated colorimetric assay for evaluating cell viability, known as the Mosmann MTT method. […] The latter was dissolved in isopropyl alcohol solution containing 5% formic acid prior to absorbance measurement at 550 nm. Collected absorbance values were blanked against MTT and isopropanol solution and normalized to the mean value of untreated control (100% cell viability).

| Compound | Inhibition Zones [1] | Inhibition Zones [2] | IC50 [3] |
| --- | --- | --- | --- |
| O=C(Nc1ccccc1C(=O)NCCc1cccc(Cl)c1)c1ccccc1 [Compound 4b, 2-benzamido-N-(3-chlorophenethyl)benzamide] | 10 mm | 8 mm | 30 to 60 µM |
| Nc1ccccc1C(=O)NCCc1cccc(Cl)c1 [Compound 3, 2-amino-N-(3-chlorophenethyl)benzamide] | 11 mm | 8 mm | – |
